Laboratory results as given in ChEMBL document CHEMBL5465560, “Selectivity Literature for EUbOPEN Chemogenomic Library” (2024).

Legend:
[1] = target: Serine/threonine-protein kinase 25 (Homo sapiens) (UniProt O00506); assay: Selectivity interaction (KinomeScan (DiscoverX)) EUB0000695a STK25; conditions: at 100 nM
[2] = target: Activin receptor type-2A (Homo sapiens) (UniProt P27037); assay: Selectivity interaction (KinomeScan (DiscoverX)) EUB0001079a ACVR2A; conditions: at 1 µM
[3] = target: T1, Serine/threonine-protein kinase MAK (Homo sapiens) (UniProt P20794); assay: Selectivity interaction (KinomeScan (DiscoverX)) EUB0001619a MAK; conditions: at 1 µM
T1 sequence (whole entry): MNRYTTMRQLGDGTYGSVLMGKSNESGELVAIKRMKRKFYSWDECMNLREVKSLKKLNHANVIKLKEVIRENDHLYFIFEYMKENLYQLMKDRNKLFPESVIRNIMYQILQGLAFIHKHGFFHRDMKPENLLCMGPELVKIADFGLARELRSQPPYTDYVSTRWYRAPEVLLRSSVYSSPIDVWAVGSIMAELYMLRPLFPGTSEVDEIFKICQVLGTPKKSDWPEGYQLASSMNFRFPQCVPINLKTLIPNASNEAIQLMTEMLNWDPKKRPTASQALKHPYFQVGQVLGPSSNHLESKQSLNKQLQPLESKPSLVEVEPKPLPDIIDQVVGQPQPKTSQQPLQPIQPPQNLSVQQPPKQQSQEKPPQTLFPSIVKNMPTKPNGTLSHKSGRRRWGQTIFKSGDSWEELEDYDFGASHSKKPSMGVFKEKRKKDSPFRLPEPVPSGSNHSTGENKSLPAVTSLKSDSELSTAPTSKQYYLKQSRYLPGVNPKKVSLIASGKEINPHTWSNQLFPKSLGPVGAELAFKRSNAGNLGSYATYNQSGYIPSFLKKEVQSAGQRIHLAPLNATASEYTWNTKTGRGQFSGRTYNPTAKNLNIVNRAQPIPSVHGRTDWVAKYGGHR

[4] = target: Protein arginine N-methyltransferase 7 (Homo sapiens, UniProt Q9NVM4); assay: Selectivity interaction (Scintillation proximity assays) EUB0000255b PRMT7
[5] = target: T2, Serine/threonine-protein kinase LATS2 (Homo sapiens) (UniProt Q9NRM7); assay: Selectivity interaction (ActivX KiNativ screen (kinase selectivity in THP-1 cell lysates)) EUB0000639a LATS2; type: subcellular; conditions: lysate
T2 sequence (whole entry): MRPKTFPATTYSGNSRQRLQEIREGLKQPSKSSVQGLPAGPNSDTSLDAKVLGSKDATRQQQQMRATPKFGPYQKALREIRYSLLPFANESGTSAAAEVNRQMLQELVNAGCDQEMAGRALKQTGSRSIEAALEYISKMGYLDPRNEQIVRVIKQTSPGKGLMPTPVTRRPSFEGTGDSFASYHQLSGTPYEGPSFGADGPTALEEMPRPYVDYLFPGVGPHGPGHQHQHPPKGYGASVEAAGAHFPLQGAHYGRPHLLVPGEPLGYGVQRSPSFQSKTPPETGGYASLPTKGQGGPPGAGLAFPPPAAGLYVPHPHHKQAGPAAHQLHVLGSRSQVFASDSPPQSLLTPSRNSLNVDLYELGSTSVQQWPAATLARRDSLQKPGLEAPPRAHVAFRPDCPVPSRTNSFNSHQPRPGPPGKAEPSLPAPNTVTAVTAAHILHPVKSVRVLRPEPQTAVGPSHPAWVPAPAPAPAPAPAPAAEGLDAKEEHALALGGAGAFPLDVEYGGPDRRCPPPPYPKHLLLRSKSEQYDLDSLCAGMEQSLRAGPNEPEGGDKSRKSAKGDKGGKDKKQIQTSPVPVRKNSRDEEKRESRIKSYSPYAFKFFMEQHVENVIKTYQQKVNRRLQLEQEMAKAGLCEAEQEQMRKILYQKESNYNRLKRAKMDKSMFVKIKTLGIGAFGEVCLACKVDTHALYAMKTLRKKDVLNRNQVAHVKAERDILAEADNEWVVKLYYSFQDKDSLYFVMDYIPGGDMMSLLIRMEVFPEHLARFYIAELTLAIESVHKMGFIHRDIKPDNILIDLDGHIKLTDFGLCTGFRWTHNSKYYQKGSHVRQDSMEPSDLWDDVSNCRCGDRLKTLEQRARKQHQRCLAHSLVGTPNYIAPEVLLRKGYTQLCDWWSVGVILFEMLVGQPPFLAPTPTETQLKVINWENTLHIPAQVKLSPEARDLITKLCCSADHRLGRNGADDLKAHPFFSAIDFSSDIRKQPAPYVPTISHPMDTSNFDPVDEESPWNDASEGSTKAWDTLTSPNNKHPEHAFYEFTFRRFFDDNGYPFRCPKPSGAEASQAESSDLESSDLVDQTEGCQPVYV

[6] = target: Serine/threonine-protein kinase pim-1 (Homo sapiens, UniProt P11309); assay: Selectivity interaction (KinomeScan (DiscoverX)) EUB0000655a PIM1; conditions: at 10 µM
Sequence of Serine/threonine-protein kinase pim-1 (P11309 whole entry, looked up): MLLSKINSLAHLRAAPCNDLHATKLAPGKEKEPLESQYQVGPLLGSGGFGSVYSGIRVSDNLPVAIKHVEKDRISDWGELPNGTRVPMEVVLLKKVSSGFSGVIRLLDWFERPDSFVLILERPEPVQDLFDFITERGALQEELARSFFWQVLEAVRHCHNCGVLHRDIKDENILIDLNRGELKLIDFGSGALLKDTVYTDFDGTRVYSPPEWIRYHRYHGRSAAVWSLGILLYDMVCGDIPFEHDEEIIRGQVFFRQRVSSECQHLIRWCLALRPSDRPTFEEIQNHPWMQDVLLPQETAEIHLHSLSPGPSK

Sequence of Activin receptor type-2A (Homo sapiens) (P27037 whole entry): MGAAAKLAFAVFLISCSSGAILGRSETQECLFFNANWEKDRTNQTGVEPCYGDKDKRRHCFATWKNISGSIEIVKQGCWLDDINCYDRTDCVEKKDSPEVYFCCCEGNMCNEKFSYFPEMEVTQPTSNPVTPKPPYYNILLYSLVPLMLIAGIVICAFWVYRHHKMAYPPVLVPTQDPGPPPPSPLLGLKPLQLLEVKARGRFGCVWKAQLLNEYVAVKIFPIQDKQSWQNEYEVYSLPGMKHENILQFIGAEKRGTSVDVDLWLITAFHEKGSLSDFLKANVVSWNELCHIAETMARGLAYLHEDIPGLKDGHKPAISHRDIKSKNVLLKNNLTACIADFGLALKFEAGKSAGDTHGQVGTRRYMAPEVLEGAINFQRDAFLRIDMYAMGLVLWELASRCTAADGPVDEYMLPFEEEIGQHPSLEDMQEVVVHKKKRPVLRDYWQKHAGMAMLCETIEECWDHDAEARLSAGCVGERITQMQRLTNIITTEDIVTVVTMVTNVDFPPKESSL
Sequence of Serine/threonine-protein kinase 25 (Homo sapiens) (O00506 whole entry, looked up): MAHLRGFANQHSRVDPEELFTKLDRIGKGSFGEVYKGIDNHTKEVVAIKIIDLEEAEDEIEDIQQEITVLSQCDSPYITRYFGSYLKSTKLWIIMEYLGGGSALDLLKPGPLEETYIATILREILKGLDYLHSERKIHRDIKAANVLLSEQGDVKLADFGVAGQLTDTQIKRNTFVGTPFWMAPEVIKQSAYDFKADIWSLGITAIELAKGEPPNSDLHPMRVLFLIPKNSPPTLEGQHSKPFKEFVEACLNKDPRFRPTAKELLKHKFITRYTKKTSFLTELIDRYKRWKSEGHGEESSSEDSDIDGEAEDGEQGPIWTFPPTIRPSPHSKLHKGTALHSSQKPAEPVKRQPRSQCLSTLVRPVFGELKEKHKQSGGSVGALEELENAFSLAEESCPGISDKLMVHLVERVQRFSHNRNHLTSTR
Sequence of Protein arginine N-methyltransferase 7 (Q9NVM4 whole entry): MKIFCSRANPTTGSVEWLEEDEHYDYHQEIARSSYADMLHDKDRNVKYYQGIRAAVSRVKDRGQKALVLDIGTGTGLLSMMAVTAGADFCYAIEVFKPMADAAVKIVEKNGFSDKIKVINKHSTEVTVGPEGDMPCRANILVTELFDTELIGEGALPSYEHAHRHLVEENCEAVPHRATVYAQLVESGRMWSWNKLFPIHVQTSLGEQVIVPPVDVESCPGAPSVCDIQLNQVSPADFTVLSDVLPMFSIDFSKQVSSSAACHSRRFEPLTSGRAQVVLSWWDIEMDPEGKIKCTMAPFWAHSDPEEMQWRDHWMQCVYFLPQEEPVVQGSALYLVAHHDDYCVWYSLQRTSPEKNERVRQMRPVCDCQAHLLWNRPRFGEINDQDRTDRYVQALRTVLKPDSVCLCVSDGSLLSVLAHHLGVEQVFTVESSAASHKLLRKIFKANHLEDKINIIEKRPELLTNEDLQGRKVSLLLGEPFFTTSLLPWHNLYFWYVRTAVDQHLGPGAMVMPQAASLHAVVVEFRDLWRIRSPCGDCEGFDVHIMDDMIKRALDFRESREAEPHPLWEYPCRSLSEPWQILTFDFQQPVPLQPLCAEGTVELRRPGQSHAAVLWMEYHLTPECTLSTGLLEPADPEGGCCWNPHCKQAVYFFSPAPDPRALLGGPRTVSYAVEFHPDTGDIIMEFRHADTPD

Cc1cc(F)c(C(=O)Nc2cccc(-c3nncn3C(C)C)n2)cc1-n1cnc(C2CC2)c1
% of control [1]: 100%

Nc1cnc(N2CCc3cc(S(=O)(=O)Nc4c(F)cc(Cl)cc4F)cc(N4CCCC4=O)c32)nc1 [TP-020n]
% of control [2]: 67%

N#Cc1cccc(-c2c[nH]c3ncnc(N4CCOCC4)c23)c1
% of control [3]: 94%

COCCN1CCC(c2cc(CN(C)C(=O)c3cccc(Oc4ccccc4)c3)ccn2)CC1
IC50 [4]: > 10 µM

CC[C@@H]1[C@H](F)C(=O)N[C@@H]1COc1nccc2cc(C(N)=O)c(OC)cc12 [ZIMLOVISERTIB]
% of inhibition ([5]; at 0.01 µM): -10.4%
% of inhibition ([5]; at 0.04 µM): -16%
% of inhibition ([5]; at 0.2 µM): 2.1%
% of inhibition ([5]; at 1 µM): 32.5%
% of inhibition ([5]; at 5 µM): 85%

CN(C)CCOc1ccc(-c2nc(-c3ccncc3)c(-c3ccc4c(c3)CC/C4=N\O)[nH]2)cc1
% of control [6]: 86%
